In brackets after ≈: the same amount, converted by molar mass.
Key:
[1] = Intrinsic clearance in human hepatocytes assessed per million cells at 1 uM after 180 mins by LC-MS/MS analysis; format: ADME, cell-based, Hepatocyte; settings: read-out: CLH
[2] = Efflux ratio of permeability […] in pig LLC-PK1 cells expressing human MDR1; format: ADME, cell-based, Sus scrofa
[3] = biological target: T1, Leucine-rich repeat serine/threonine-protein kinase 2 (Homo sapiens, UniProt Q5S007, G2019S); assay: Inhibition LRRK2 G2019S mutant Ser935 phosphorylation in human SH-SY5Y cells after 90 mins by Western blot analysis; format: cell-based
T1 sequence (Q5S007 whole entry G2019S): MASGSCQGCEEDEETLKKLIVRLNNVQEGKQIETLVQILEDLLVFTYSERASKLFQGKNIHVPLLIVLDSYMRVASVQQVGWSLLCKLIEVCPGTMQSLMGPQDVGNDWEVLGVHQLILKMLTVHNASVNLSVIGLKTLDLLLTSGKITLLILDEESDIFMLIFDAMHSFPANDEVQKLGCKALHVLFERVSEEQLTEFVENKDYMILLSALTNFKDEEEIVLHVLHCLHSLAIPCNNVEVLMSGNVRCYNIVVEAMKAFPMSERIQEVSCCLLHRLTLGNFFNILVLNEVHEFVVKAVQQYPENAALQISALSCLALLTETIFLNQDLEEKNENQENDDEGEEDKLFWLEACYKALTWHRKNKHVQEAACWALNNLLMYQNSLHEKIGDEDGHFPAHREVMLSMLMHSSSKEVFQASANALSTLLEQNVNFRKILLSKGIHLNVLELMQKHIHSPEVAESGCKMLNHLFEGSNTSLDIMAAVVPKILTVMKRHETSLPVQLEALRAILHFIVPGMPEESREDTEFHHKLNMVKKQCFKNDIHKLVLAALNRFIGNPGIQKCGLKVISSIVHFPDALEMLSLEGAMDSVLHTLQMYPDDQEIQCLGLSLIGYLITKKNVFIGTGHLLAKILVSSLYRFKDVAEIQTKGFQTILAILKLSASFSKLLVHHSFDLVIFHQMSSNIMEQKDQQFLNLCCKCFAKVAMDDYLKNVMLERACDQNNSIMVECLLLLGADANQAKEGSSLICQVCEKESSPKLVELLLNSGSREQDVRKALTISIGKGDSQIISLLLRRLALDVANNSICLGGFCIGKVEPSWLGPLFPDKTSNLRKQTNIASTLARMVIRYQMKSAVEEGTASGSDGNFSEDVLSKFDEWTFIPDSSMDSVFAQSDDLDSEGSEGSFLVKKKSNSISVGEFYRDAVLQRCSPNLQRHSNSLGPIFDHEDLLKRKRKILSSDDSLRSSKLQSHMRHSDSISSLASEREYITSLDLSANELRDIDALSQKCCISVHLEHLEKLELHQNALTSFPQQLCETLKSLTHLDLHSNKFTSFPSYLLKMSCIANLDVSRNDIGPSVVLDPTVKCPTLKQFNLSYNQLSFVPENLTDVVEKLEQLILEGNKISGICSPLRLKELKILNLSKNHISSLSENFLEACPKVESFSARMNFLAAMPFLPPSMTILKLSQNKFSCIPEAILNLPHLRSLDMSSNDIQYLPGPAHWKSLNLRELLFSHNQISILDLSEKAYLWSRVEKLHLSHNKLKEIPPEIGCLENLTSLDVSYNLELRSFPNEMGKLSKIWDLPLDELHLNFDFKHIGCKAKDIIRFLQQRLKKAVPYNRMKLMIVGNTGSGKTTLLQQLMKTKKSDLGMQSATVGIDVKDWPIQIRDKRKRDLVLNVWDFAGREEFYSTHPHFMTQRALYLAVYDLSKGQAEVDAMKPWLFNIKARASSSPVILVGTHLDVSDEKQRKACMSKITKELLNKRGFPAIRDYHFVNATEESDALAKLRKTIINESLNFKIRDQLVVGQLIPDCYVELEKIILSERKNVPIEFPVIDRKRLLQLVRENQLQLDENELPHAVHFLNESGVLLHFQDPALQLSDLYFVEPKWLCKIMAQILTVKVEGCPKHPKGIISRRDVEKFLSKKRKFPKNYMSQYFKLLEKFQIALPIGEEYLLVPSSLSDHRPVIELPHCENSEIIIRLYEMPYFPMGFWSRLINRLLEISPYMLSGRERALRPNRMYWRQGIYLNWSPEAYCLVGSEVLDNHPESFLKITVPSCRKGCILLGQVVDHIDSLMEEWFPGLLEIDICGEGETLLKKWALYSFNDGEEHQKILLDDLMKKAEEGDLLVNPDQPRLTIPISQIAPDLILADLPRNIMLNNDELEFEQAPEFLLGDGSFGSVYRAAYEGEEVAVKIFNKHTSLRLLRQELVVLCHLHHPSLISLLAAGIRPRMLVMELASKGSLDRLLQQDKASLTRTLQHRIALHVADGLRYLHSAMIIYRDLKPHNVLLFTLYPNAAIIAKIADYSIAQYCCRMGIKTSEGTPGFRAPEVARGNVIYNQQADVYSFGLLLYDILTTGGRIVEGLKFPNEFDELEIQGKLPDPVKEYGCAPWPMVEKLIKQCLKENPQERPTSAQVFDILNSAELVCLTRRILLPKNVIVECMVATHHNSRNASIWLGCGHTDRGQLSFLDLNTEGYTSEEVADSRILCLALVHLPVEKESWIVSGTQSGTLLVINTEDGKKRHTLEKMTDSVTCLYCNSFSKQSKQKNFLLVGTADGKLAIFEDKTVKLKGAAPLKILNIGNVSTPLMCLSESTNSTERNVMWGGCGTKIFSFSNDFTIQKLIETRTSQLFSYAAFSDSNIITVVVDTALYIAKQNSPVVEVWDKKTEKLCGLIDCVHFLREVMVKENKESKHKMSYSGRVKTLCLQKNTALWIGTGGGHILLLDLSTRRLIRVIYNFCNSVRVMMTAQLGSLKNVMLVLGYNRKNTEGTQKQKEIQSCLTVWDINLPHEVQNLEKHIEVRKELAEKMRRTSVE

[4] = Half life in Han-Wistar rat at 2 mg/kg, iv measured after 2 to 480 mins by LC-MS/MS analysis; format: ADME, organism-based; settings: in vivo
[5] = AUC (0 to 8 hrs) in Han-Wistar rat at 2 mg/kg, iv measured after 2 to 480 mins by LC-MS/MS analysis; format: ADME, organism-based; design: time < 8 hr, dose 2 mg/kg, route intravenous; settings: in vivo
MDR1 (human) = assay: Apparent permeability in pig LLC-PK1 cells expressing human MDR1; format: ADME, cell-based, Sus scrofa
[6] = Intrinsic clearance in rat hepatocytes assessed per million cells at 1 uM after 180 mins by LC-MS/MS analysis; format: ADME, cell-based, Hepatocyte; settings: read-out: CLH
[7] = biological target: T2, Dual specificity protein kinase TTK (Homo sapiens) (UniProt P33981); assay: Inhibition of recombinant human full length GST-tagged TTK expressed in baculovirus; settings: concentration not given here
T2 sequence (whole entry): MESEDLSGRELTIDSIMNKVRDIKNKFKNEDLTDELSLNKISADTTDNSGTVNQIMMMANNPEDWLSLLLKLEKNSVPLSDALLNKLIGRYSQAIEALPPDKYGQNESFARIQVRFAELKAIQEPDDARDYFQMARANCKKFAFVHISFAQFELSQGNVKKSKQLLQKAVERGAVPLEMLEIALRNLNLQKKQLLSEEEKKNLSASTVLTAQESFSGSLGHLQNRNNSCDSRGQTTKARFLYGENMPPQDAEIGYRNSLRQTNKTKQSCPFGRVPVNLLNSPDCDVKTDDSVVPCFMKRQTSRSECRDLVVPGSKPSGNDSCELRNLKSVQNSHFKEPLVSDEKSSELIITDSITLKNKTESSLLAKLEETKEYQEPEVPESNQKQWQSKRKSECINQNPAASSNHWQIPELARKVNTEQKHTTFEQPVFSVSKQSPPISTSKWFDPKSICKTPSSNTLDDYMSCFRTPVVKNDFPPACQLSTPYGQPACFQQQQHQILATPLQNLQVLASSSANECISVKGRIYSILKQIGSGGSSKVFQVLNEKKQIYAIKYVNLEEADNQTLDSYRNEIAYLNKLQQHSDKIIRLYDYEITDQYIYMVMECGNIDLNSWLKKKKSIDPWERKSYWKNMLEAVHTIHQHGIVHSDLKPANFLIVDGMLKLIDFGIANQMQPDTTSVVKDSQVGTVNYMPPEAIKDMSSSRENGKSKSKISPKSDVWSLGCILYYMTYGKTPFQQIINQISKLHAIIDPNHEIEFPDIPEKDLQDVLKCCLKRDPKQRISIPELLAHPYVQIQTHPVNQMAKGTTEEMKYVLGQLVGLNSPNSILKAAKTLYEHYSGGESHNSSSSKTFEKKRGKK

[8] = biological target: Mitogen-activated protein kinase 1 (Homo sapiens) (UniProt P28482); assay: Inhibition of recombinant human full length GST-tagged ERK2 expressed in Escherichia coli at 1 uM
Mitogen-activated protein kinase 1 (Homo sapiens), sequence (P28482 whole entry, the tested form may be a part): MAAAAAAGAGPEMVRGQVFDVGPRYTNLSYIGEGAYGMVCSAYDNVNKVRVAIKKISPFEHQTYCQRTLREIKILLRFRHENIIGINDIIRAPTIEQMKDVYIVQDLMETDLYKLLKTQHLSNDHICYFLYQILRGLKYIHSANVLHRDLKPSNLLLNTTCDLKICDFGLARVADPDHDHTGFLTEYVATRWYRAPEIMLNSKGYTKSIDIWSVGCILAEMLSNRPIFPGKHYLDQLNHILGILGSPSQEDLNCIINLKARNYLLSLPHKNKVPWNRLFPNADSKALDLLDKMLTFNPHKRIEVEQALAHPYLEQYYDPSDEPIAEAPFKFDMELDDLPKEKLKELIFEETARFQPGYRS

[9] = biological target: T1, Leucine-rich repeat serine/threonine-protein kinase 2; assay: Inhibition of recombinant human GST-tagged LRRK2 (970 to 2527 residues) G2019S mutant expressed in baculovirus using fluorescein-ERM as substrate preincubated for 30 mins followed by substrate addition measured after 1 hr by TR-FRET assay
[10] = Efflux ratio of permeability […] in pig LLC-PK1 cells expressing rat MDR1; format: ADME, cell-based, Sus scrofa
[11] = biological target: Leucine-rich repeat serine/threonine-protein kinase 2 (Homo sapiens, UniProt Q5S007); assay: Inhibition of wild type human recombinant LRRK2 expressed in baculovirus using fluorescein-ERM as substrate preincubated for 30 mins followed by substrate addition measured after 1 hr by TR-FRET assay
Leucine-rich repeat serine/threonine-protein kinase 2 (Homo sapiens, UniProt Q5S007), sequence (Q5S007 whole entry): as the sequence (Q5S007 whole entry G2019S) above, with S2019G counted along it

Cerebrospinal fluid = assay: Drug level in rat Cerebrospinal fluid at 5 mg/kg, ip; format: ADME, organism-based; settings: in vivo, read-out: Drug uptake
Plasma = assay: Unbound plasma concentration in rat at 5 mg/kg, ip; format: ADME, organism-based; settings: in vivo
[12] = Tmax in Han-Wistar rat at 10 mg/kg, po measured after 15 to 480 mins by LC-MS/MS analysis; format: ADME, organism-based; settings: in vivo
Cytochrome P450 3A4 [13] = biological target: T3, Cytochrome P450 3A4 (Homo sapiens, UniProt P08684); assay: Time dependent inhibition of human CYP3A4; format: ADME
T3 sequence (P08684 whole entry): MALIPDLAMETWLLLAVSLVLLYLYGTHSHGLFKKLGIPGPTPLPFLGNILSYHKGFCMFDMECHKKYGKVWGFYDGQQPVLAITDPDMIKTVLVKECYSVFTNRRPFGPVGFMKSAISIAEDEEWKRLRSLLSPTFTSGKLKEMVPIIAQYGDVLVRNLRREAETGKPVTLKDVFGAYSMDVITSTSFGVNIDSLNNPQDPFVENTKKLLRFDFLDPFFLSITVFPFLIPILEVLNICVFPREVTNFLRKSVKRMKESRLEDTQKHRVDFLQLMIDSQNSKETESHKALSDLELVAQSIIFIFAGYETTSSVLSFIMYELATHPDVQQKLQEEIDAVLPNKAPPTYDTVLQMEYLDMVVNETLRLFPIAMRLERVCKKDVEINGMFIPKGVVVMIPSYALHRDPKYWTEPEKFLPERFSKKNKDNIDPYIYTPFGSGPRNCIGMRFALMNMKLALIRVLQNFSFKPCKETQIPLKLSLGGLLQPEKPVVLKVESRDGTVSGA

[14] = Oral bioavailability in Han-Wistar rat at 10 mg/kg, measured after 15 to 480 mins by LC-MS/MS analysis; format: ADME, organism-based; settings: in vivo
Rattus norvegicus [15] = assay: In vivo inhibition of LRRK2 Ser935 phosphorylation in CD rat brain cortex assessed as reduction in ratio of phosphorylated Ser935 to total LRRK2 protein at => 30 mg/kg, po administered 1 hr post treatment by Western blot analysis; format: functional
[16] = Equilibrium solubility in fed state simulated intestinal fluid after 24 hrs by HPLC method; format: physicochemical
[17] = Equilibrium solubility in Water after 24 hrs by HPLC method; format: physicochemical
[18] = Fraction unbound in rat plasma at 10 uM after 4 hrs by rapid equilibrium dialysis method; format: ADME, cell-free
[19] = MRT in Han-Wistar rat at 2 mg/kg, iv measured after 2 to 480 mins by LC-MS/MS analysis; format: ADME, organism-based; settings: in vivo
Rattus norvegicus [20] = assay: In vivo inhibition of LRRK2 Ser935 phosphorylation in CD rat brain cortex assessed as unbound brain concentration causing reduction in ratio of phosphorylated Ser935 to total LRRK2 protein at 1 to 100 mg/kg, po administered 1 hr post treatment by Western blot analysis; format: functional
Cytochrome P450 3A4 [21] = biological target: T3, Cytochrome P450 3A4; assay: Inhibition of human CYP3A4; format: ADME
[22] = Equilibrium solubility in pH 6.5 Phosphate buffer after 24 hrs by HPLC method; format: physicochemical
[23] = Cmax in Han-Wistar rat at 10 mg/kg, po measured after 15 to 480 mins by LC-MS/MS analysis; format: ADME, organism-based; settings: in vivo, read-out: C0
Mus musculus [24] = assay: In vivo inhibition of LRRK2 Ser935 phosphorylation in mouse brain cortex assessed as reduction in ratio of phosphorylated Ser935 to total LRRK2 protein at =>10 mg/kg, po administered 1 hr prior to euthanasia measured by Western blot analysis; format: functional
[25] = Clearance in Han-Wistar rat at 2 mg/kg, iv measured after 2 to 480 mins by LC-MS/MS analysis; format: ADME, organism-based; settings: in vivo
Cytochrome P450 2C9 = Cytochrome P450 2C9 (Homo sapiens, UniProt P11712); assay: Inhibition of human CYP2C9; format: ADME
Cytochrome P450 2C9, sequence (P11712 whole entry): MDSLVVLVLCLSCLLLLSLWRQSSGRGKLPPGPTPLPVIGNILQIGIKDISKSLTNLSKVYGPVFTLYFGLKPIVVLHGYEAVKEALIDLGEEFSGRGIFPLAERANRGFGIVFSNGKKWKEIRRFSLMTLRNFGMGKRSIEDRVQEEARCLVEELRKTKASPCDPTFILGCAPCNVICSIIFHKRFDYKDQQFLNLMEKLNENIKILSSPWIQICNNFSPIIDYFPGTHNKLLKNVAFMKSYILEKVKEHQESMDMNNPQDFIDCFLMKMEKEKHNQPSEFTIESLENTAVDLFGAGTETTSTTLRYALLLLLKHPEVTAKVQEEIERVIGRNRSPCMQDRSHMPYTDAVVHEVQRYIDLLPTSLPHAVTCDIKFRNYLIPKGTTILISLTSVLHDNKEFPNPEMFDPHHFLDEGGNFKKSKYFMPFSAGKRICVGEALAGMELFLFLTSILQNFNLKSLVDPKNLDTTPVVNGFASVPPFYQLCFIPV

[26] = Initial concentration in Han-Wistar rat at 2 mg/kg, iv measured after 2 to 480 mins by LC-MS/MS analysis; format: ADME, organism-based; settings: in vivo
[27] = Equilibrium solubility in simulated gastric fluid after 24 hrs by HPLC method; format: physicochemical
[28] = MRT in Han-Wistar rat at 10 mg/kg, po measured after 15 to 480 mins by LC-MS/MS analysis; format: ADME, organism-based; settings: in vivo
[29] = Equilibrium solubility in fasted state simulated intestinal fluid after 24 hrs by HPLC method; format: physicochemical
[30] = AUC (0 to 8 hrs) in Han-Wistar rat at 10 mg/kg, po measured after 15 to 480 mins by LC-MS/MS analysis; format: ADME, organism-based; design: dose 10 mg/kg, time < 8 hr, route oral; settings: in vivo
[31] = Equilibrium solubility in pH 5 acetate buffer after 24 hrs by HPLC method; format: physicochemical
Mus musculus [32] = assay: In vivo inhibition of LRRK2 Ser935 phosphorylation in mouse brain assessed as unbound brain concentration causing reduction in ratio of phosphorylated Ser935 to total LRRK2 protein at 1 to 100 mg/kg, po administered 1 hr post treatment by Western blot analysis; format: functional, organism-based
Mus musculus [33] = assay: In vivo inhibition of LRRK2 Ser935 phosphorylation in mouse brain assessed as unbound plasma concentration causing reduction in ratio of phosphorylated Ser935 to total LRRK2 protein at 1 to 100 mg/kg, po administered 1 hr post treatment by Western blot analysis; format: functional, organism-based
Cytochrome P450 2D6 = Cytochrome P450 2D6 (Homo sapiens, UniProt P10635); assay: Inhibition of human CYP2D6; format: ADME
Cytochrome P450 2D6, sequence (P10635 whole entry): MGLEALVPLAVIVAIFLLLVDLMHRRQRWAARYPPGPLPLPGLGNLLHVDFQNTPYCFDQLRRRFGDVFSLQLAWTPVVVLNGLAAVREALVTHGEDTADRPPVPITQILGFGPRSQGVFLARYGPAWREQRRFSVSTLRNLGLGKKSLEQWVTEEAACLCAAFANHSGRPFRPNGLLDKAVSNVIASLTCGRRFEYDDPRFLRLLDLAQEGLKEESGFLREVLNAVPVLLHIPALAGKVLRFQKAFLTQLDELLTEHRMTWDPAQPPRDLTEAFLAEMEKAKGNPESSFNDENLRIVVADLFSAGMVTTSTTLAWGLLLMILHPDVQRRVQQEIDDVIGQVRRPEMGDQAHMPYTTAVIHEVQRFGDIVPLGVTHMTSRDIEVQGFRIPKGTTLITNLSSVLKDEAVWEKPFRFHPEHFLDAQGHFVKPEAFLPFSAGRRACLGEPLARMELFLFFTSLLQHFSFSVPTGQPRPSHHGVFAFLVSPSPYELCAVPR

Rattus norvegicus [34] = assay: In vivo inhibition of LRRK2 Ser935 phosphorylation in CD rat brain cortex assessed as unbound plasma concentration causing reduction in ratio of phosphorylated Ser935 to total LRRK2 protein at 1 to 100 mg/kg, po administered 1 hr post treatment by Western blot analysis; format: functional

CC(C)Oc1ccc2[nH]nc(-c3ccnc(N4CCOCC4)c3)c2c1
hepatocyte CLint at 1 µM [1]: 22 µL/min/1e6 cells
Ratio [2]: 0.5
IC50 [3]: 43 nM
half-life [4]: 1 h
AUC(0-t) at 8 h [5]: 1 µM·h
Papp (MDR1 (human)): 30 ×10⁻⁶ cm/s
hepatocyte CLint at 1 µM [6]: 49 µL/min/1e6 cells
inhibition [7]: 91%
inhibition [8]: 41%
IC50 [9]: 0.7 nM
Ratio [10]: 0.7

CN(c1cccc(S(C)(=O)=O)c1)c1ccc2[nH]nc(-c3ccncc3)c2c1
IC50 [11]: 44 nM
concentration (Cerebrospinal fluid): 36 nM
Cp(f) (Plasma): 42 nM

C[C@@H]1CN(c2cc(-c3n[nH]c4ccc(OC5(C)CC5)cc34)ncn2)C[C@H](C)O1 [MLi-2]
hepatocyte CLint at 1 µM [1]: 8 µL/min/1e6 cells
Tmax [12]: 1.3 h
TDI (Cytochrome P450 3A4 [13]): Not Active
bioavailability [14]: 39%
inhibition (INH) (Rattus norvegicus [15]): >90%
solubility thermodynamic at 24 h [16]: 14 to 38 µg/mL (≈ 36.9 to 100 µM)
solubility thermodynamic at 24 h [17]: 14 to 38 µg/mL (≈ 36.9 to 100 µM)
half-life [4]: 1.8 h
AUC(0-t) at 8 h [5]: 0.66 µM·h
fraction unbound at 4 h, 10 µM [18]: 0.012
MRT [19]: 1.7 h
fIC50 (Rattus norvegicus [20]): 0.18 nM
IC50 (Cytochrome P450 3A4 [21]): > 50000 nM
solubility thermodynamic at 24 h [22]: 14 to 38 µg/mL (≈ 36.9 to 100 µM)
Cmax [23]: 480 nM
inhibition (INH) (Mus musculus [24]): >90%
clearance [25]: 153 mL/min/kg
IC50 (Cytochrome P450 2C9): > 50000 nM
C0 [26]: 1170 nM
hepatocyte CLint at 1 µM [6]: 15 µL/min/1e6 cells
solubility thermodynamic at 24 h [27]: 14 to 38 µg/mL (≈ 36.9 to 100 µM)
MRT [28]: 4 h
solubility thermodynamic at 24 h [29]: 14 to 38 µg/mL (≈ 36.9 to 100 µM)
AUC(0-t) at 8 h [30]: 1.3 µM·h
solubility thermodynamic at 24 h [31]: 14 to 38 µg/mL (≈ 36.9 to 100 µM)
IC50 (Mus musculus [32]): 0.8 nM
IC50 (Mus musculus [33]): 1.1 nM
IC50 (Cytochrome P450 2D6): > 50000 nM
fIC50 (Rattus norvegicus [34]): 0.2 nM
